Assay results published in patent publication US20220218708A1, “METHODS FOR TREATING SMARCB1 DEFICIENT CANCER OR PAZOPANIB RESISTANT CANCER” (The Institute of Cancer Research:Royal Cancer Hospital, priority 2016, published 2022).

Columns and labels:
Type in all cases: cell-based
[1] = tested on: RMS-YM cells; assay: Cell viability (WST-1) dose response; conditions: 72 hours
Procedure: (§1) Cells were cultured in DMEM (A204, G402, Saos2, U2OS, HT1080, SW684, SW872, SW982, Hs729T, RUCH-3, T9195 and AN3CA), RPMI (RMS-YM and SJSA-1) or McCoy5A (MES-SA) media supplemented with 10% FBS/2 mM glutamine/100 units/ml penicillin/[…] streptomycin in 95% air/5% CO2 atmosphere at 37° C. For SILAC experiments, A204 cells and resistant sublines were cultured in SILAC DMEM media (Thermo Fisher Scientific) supplemented with light lysine and arginine (ROKO) (Sigma) and heavy lysine and arginine (R10K8) (Goss Scientific) respectively.
(§2) 2000 cells/well were seeded in a 96-well plate and treated with inhibitors at the indicated dose and combinations for 24 h for apoptosis measurement by Caspase-Glo 3/7 Assay (Promega), or for 72 hours in cell viability measurements by WST-1 (Abcam), following the manufacturer's recommendations. IC50 data were generated from dose-response curves fitted using a four-parameter regression fit in PRISM 5 software (GraphPad).

[2] = tested on: U2OS cells; assay: Cell viability (WST-1) dose response; conditions: Homo sapiens, 72 hours
Procedure: as §1, §2

[3] = tested on: SW872 cells; assay: Cell viability (WST-1) dose response; conditions: Homo sapiens, 72 hours
Procedure: as §1, §2

[4] = tested on: SW684 cells; assay: Cell viability (WST-1) dose response; conditions: Homo sapiens, 72 hours
Procedure: as §1, §2

[5] = tested on: MES-SA cells; assay: Cell viability (WST-1) dose response; conditions: Homo sapiens, 72 hours
Procedure: as §1, §2

[6] = tested on: T91-95 cells; assay: Cell viability (WST-1) dose response; conditions: 72 hours
Procedure: as §1, §2

[7] = tested on: SW982 cells; assay: Cell viability (WST-1) dose response; conditions: Homo sapiens, 72 hours
Procedure: as §1, §2

[8] = tested on: HT1080 cells; assay: Cell viability (WST-1) dose response; conditions: Homo sapiens, HT-1080, 72 hours
Procedure: as §1, §2

[9] = tested on: SAOS2 cells; assay: Cell viability (WST-1) dose response; conditions: Homo sapiens, SAOS-2, 72 hours
Procedure: as §1, §2

[10] = tested on: SJSA-1 cells; assay: Cell viability (WST-1) dose response; conditions: Homo sapiens, 72 hours
Procedure: as §1, §2

[11] = tested on: Hs729T cells; assay: Cell viability (WST-1) dose response; conditions: 72 hours
Procedure: as §1, §2

[12] = tested on: RUCH-3 cells; assay: Cell viability (WST-1) dose response; conditions: 72 hours
Procedure: as §1, §2

[13] = tested on: Sunitinib resistant A204 cells (SunR); assay: Cell viability in acquired resistant subline; conditions: Homo sapiens
Procedure: (§3) Cells were grown initially in DMEM media containing drug concentration of 500 nM. The drug was incremented when the cells had proliferated to near confluency alongside minimal visible cell death. Drug concentration was incremented from 2 μM, 3 μM and 5 μM in a stepwise manner over 6 weeks. A final drug concentration of 5 μM was maintained in resistant cells. Media and drug were replenished twice weekly.
as §2

[14] = tested on: Pazopanib resistant A204 cells (PazR); assay: Cell viability in acquired resistant subline; conditions: Homo sapiens
Procedure: as §3, §2

[15] = tested on: Dasatinib resistant A204 cells (DasR); assay: Cell viability in acquired resistant subline; conditions: Homo sapiens
Procedure: as §3, §2

[16] = tested on: G402 cells (MRT cell line); assay: Cell viability (WST-1) dose response; conditions: for IC50: Homo sapiens, G-402, G402, cell viability, 72 hours; for effect on cell viability: G402 cells, dose response
Procedure: (§4) For SILAC experiments, A204 cells and resistant sublines were cultured in SILAC DMEM media (Thermo Fisher Scientific) supplemented with light lysine and arginine (ROKO) (Sigma) and heavy lysine and arginine (R10K8) (Goss Scientific) respectively.
as §2

[17] = tested on: A204 cells (parental, MRT cell line); assay: Cell viability (WST-1) dose response; conditions: for IC50: Homo sapiens, cell viability; for effect on cell viability: A204 cells, dose response
Procedure: as §4, §2

[18] = tested on: ERK1/2 phosphorylation; assay: Immunoblot of ERK1/2 phosphorylation; conditions: MRT cells; drug treatment for 1 hour (FIG. 3H)
Procedure: (§5) After the indicated treatments, cells were lysed in RIPA lysis buffer at 4° C. Lysates were loaded onto SDS-PAGE gels followed by blotting onto PVDF membranes.
(§6) Details of antibodies, immunoprecipitation and immunofluorescence analyses are as follows. For immunoblotting, cells were lysed in RIPA lysis buffer supplemented with protease and phosphatase inhibitors (Thermo Pierce) at 4° C. Lysates were loaded onto SDS-PAGE gels followed by blotting onto PVDF membranes as described (Iwai et al., 2013). Blots were probed with primary antibodies followed by corresponding horseradish peroxidase-conjugated secondary antibodies. Primary antibodies include anti-PDGFRα #3174, CST; anti-pAKT (S473) #4058, CST; anti-AKT #4691, CST; anti-pERK-T202/Y204 #4370, CST; anti-ERK #9102, CST; anti-FGFR1 #76464, abcam; anti-BAF47 (SMARCB1) #61211, BD; anti-TFR #13-6890, ThermoFisherScientific; anti-pY1000 #8954, CST and anti-α-Tubulin #T5168, Sigma. Secondary antibodies include Polyclonal Goat Anti-Rabbit HRP #P0448, Dako and Anti-Mouse HRP #G32-62G-1000, Signalchem. Immunoreactive bands were visualized by chemiluminescence (Amersham) and the blots were exposed to x-ray XAR film (Kodak).

[19] = tested on: PazR cells; assay: Annexin V staining, automated imaging
Procedure: as §3
Details for annexin V staining and siRNA transfections are as follows. For Annexin V staining, 3000 cells/well were seeded into 96-well CellCarrier plates (Perkin Elmer). 24 h after seeding, drugs were added and incubated for an additional 48 h. FITC-Annexin V (BD Biosciences) and Hoechst 33342 (Tocris) diluted in 10× annexin binding buffer (0.1M HEPES, 1.4M NaCl, 25 mM CaCl2) was added and incubated at 37° C. for 15 minutes. Plates were imaged using an Operetta high-content imager (Perkin Elmer). Images were analysed using Harmony software (Perkin Elmer), and annexin positivity defined as number of annexin-FITC-positive cells relative to total number of Hoechst-positive nuclei. The interaction between drugs was analysed by the Chou and Talalay median effect principle as described (Todd et al., 2014). siRNA transfections were performed as follows, 2000 cells/well were reverse transfected in 96-well plates with SMARTpool siRNAs (Dharmacon) using Lullaby reagent (Oz Biosciences). Where indicated, cells were treated with vehicle or drug 24 h post transfection. Apoptosis and cell viability were measured using Caspase 3/7 Glo and Cell Titre Glo (Promega), respectively, 72-96 h post transfection according to manufacturer's instructions and normalised to cells transfected with a non-targeting siRNA pool.

[20] = biological target: T1, PDGFRα phosphorylation (Homo sapiens, UniProt P16234); assay: Immunoprecipitation of PDGFRα and phosphotyrosine immunoblot; conditions: A204 cells; 1 μM for 1 hour
T1 construct: Immunoprecipitation of PDGFRα followed by immunoblotting with phosphotyrosine-specific antibody (PY1000) in A204 cells; endogenous in cells; host or cells: A204 cells
T1 sequence (P16234 24-1089): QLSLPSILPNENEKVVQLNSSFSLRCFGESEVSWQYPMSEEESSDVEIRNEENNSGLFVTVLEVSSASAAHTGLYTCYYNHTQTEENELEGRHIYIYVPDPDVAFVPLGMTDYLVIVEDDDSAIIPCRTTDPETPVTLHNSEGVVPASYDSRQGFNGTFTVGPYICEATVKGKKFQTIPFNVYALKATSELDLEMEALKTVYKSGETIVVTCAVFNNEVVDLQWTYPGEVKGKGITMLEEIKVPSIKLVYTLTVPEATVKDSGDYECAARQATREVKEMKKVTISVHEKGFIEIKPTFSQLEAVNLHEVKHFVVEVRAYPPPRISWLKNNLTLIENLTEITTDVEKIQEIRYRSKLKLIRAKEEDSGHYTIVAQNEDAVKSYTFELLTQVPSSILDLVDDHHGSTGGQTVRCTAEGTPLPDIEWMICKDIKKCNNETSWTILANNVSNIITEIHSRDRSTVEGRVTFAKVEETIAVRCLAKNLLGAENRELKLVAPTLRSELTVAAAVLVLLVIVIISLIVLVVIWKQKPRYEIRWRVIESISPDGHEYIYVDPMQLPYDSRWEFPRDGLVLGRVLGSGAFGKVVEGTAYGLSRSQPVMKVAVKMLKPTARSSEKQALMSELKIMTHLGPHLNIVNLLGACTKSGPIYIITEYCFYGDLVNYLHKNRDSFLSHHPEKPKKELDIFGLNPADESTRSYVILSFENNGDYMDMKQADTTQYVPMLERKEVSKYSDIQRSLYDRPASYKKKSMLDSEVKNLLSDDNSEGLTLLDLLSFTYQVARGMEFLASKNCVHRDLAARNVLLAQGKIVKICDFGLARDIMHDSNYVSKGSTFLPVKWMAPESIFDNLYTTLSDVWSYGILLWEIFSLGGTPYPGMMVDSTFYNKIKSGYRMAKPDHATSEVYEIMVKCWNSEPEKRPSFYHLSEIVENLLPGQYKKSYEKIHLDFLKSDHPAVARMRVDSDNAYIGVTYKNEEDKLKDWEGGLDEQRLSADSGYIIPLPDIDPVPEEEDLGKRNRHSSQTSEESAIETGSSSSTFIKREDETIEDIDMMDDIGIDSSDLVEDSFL
Procedure: For immunoprecipitation, cells were lysed in RIPA lysis buffer (contained 1% Triton) supplemented with protease and phosphatase inhibitors (Thermo Pierce) at 4° C. After microcentrifugation at 2,000 rpm. for 10 min, 200 μg of lysate was diluted in 200 ul lysis buffer. […] Protein G plus agarose beads were added and incubated for three hours at 4° C. to collect immune complexes, washed five times with lysis buffer and eluted in sample buffer. Proteins were resolved by SDS-PAGE, transferred to PVDF membrane and immunoblotting was performed as described above.

[21] = tested on: AKT phosphorylation; assay: Immunoblot of AKT phosphorylation; conditions: MRT cells; drug treatment for 1 hour (FIG. 3H)
Procedure: as §5, §6

[22] = tested on: MRT cells (A204 and G402); assay: Apoptosis by Caspase-Glo 3/7 assay; conditions: caspase 3/7 activity
Procedure: as §2

[23] = A204 Pazopanib resistant subline, cell viability, Table S2
[24] = 72 h, Pazopanib resistant A204 cell line, single and combination drug treatment, Table S3

IC50 [2] [µM]	IC50 [3] [µM]	IC50 [4] [µM]	IC50 [7] [µM]	IC50 [8] [µM]	IC50 [10] [µM]	Molecule	IC50 [1] [µM]	IC50 [5] [µM]	IC50 [6] [µM]	IC50 [9] [µM]	IC50 [11] [µM]	IC50 [12] [µM]	IC50 [13] [µM]	IC50 [14, 23] [µM]	IC50 [15] [µM]	IC50 [16] [µM]	IC50 ([17]; A204, 72 hours, Table S1) [µM]	IC50 ([17]; A204 Parental, Table S2) [µM]	effect on cell viability [17]	proportion of apoptotic cells compared to vehicle control [19]	further results
> 10	> 10	> 10	> 10	> 10	> 10	Cc1ccc(Nc2nccc(N(C)c3ccc4c(C)n(C)nc4c3)n2)cc1S(N)(=O)=O [Pazopanib, pazopanib]	> 10	> 10	> 10	> 10	> 10	> 10	> 10	> 10	> 10	0.238	0.219	0.245	–	no effect	IC50 [14, 24]: > 10 µM
> 10	> 10	> 10	0.582	> 10	> 10	CCN(CC)CCNC(=O)c1c(C)[nH]c(/C=C2\C(=O)Nc3ccc(F)cc32)c1C [Sunitinib, sunitinib]	> 10	> 10	> 10	4.57	> 10	> 10	> 10	> 10	5.01	0.0369	0.0363	0.0363	–	–	–

The next lines start with the molecule.

Molecule	IC50 [2] [µM]	IC50 [3] [µM]	IC50 [4] [µM]	IC50 [7] [µM]	IC50 [8] [µM]	IC50 [10] [µM]	IC50 [1] [µM]	IC50 [5] [µM]	IC50 [6] [µM]	IC50 [9] [µM]	IC50 [11] [µM]	IC50 [12] [µM]	IC50 [13] [µM]	IC50 [14, 23] [µM]	IC50 [15] [µM]	IC50 [16] [µM]	IC50 ([17]; A204, 72 hours, Table S1) [µM]	IC50 ([17]; A204 Parental, Table S2) [µM]	effect on cell viability [17]	proportion of apoptotic cells compared to vehicle control [19]	further results
Cc1nc(Nc2ncc(C(=O)Nc3c(C)cccc3Cl)s2)cc(N2CCN(CCO)CC2)n1 [Dasatinib, dasatinib]	> 10	1.04	0.0624	0.188	> 10	> 10	> 10	> 10	> 10	1.15	> 10	> 10	> 10	> 10	> 10	0.0623	0.0418	0.0418	–	–	–
AZD4547	–	–	–	–	–	–	–	–	–	–	–	–	–	–	–	–	–	–	ineffective	–	effect on cell viability [16]: ineffective
CCN1CCN(c2ccc(Nc3cc(N(C)C(=O)Nc4c(Cl)c(OC)cc(OC)c4Cl)ncn3)cc2)CC1 [BGJ398]	–	–	–	–	–	–	–	–	–	–	–	–	–	–	–	–	–	–	reduced viability	significant increase	ERK1/2 phosphorylation [18]: decreased; IC50 [14, 24]: 0.247 µM; PDGFRα phosphorylation [20]: no effects; AKT phosphorylation [21]: no effect
Cc1ccc(C(=O)Nc2ccc(CN3CCN(C)CC3)c(C(F)(F)F)c2)cc1C#Cc1cnc2cccnn12 [Ponatinib, 3-(2-imidazo[1,2-b]pyridazin-3-ylethynyl)-4-methyl-N-[4-[(4-methyl-1-piperazinyl)methyl]-3-(trifluoromethyl)phenyl]-benzamide]	–	–	–	–	–	–	–	–	–	–	–	–	–	–	–	–	–	–	sensitive	significant increase	ERK1/2 phosphorylation [18]: suppression; IC50 [14, 24]: 0.272 µM; apoptosis [22]: enhanced apoptosis; AKT phosphorylation [21]: suppression; effect on cell viability [16]: sensitive
